Test results taken from the PolyMetriX glass transition set.
± gives the standard deviation of the reports.

Compared with `*CC(*)(C)C(=O)OCC#N` (repeat unit), `*CC(*)(CC)C(=O)OCC` (repeat unit) is lower in glass transition temperature: 91.00 °C for the first, 27.00 °C for the second.

Compared with `*Oc1ccccc1-c1ccccc1Oc1ccc2c(=O)n3c4cc(-c5ccc6c(c5)nc5c7ccc(*)c8cccc(c(=O)n65)c87)ccc4nc3c3cccc1c23` (repeat unit), `*Oc1ccc(-c2ccc(Oc3ccc4ccccc4c3-c3c(*)ccc4ccccc34)c3ccccc23)c2ccccc12` (repeat unit) is lower in glass transition temperature: 376.00 °C for the first, 301.00 °C for the second.

First: *CCCCOc1ccc(C(=O)OCCOC(=O)c2ccc(O*)cc2)cc1 (repeat unit)
Second: *CCCCCCOC(=O)CC(=O)OCCCCCCOc1ccc(-n2on2-c2ccc(O*)cc2)cc1 (repeat unit)
The glass transition temperature of the first is higher: 53.00 °C for the first, 16.00 °C for the second.

Going from `*CC(*)(CCC)C(=O)OC` (repeat unit) to `*CC(*)C(=O)OC` (repeat unit) [Poly(methyl acrylate) ], the glass transition temperature falls from 83.50 °C to 9 ± 2 °C.

First: *CC(CSCCC)O* (repeat unit)
Second: *CC(CSC(C)C)O* (repeat unit)
The glass transition temperature of the first is lower: -61.00 °C for the first, -44.00 °C for the second.

First: *Cc1ccc(COC(=O)c2cccc(C(=O)O*)c2)cc1 (repeat unit)
Second: *CC(C)(C)COC(=O)Cc1ccc(C(=O)O*)cc1 (repeat unit)
The glass transition temperature of the first is higher: 143.00 °C for the first, 33.00 °C for the second.

Going from `*Oc1ccc(C(=O)c2ccc(Oc3ccc(C(=O)c4c(C(=O)c5ccc(*)cc5)c(-c5ccccc5)c(-c5ccc6ccccc6c5)c(-c5ccc6ccccc6c5)c4-c4ccccc4)cc3)cc2)cc1` (repeat unit) to `*c1ccc(-c2nc3ccc(Oc4ccc(Oc5ccc(P(=O)(c6ccccc6)c6ccc(Oc7ccc(Oc8ccc9nc(*)c(-c%10ccccc%10)nc9c8)cc7)cc6)cc5)cc4)cc3nc2-c2ccccc2)cc1` (repeat unit), the glass transition temperature falls from 290.00 °C to 248.00 °C.

Going from `*C/C=C/COC(=O)NCCCCCCNC(=O)O*` (repeat unit) to `*CCOC(=O)NCCCCCCCCCNC(=O)O*` (repeat unit), the glass transition temperature rises from -39.00 °C to 44.00 °C.

Going from `*Oc1ccc(C2(c3ccc(OC(*)=O)cc3)CCc3ccccc32)cc1` (repeat unit) to `*Oc1ccc(C2(c3ccc(OC(=O)CCCCC(*)=O)cc3)c3cc(N(C)C)ccc3-c3ccc([N+](=O)[O-])cc32)cc1` (repeat unit), the glass transition temperature falls from 219.00 °C to 150.00 °C.

Going from `*Oc1ccc(C(C)(C)c2ccc(Oc3ccc(C(=O)c4cccc5cccc(C(=O)c6ccc(*)cc6)c45)cc3)cc2)cc1` (repeat unit) to `*Oc1ccc(S(=O)(=O)c2ccc(Oc3ccc(C(c4ccccc4)(c4ccccc4)c4ccc(*)cc4)cc3)cc2)cc1` (repeat unit), the glass transition temperature rises from 210.50 °C to 230.00 °C.

Compared with `*Oc1ccc(C(C)(CC)c2ccc(OC(*)=S)cc2)cc1` (repeat unit), `*CC(O)COc1ccc(Cc2ccc(O*)cc2)cc1` (repeat unit) is higher in glass transition temperature: 102.00 °C for the first, 143.20 °C for the second.

Compared with `*Nc1cccc(NC(=O)CCCCC(=O)Nc2ccc(C(=O)NC(*)=S)cc2)c1` (repeat unit), `*Nc1ccc(NC(=O)c2cc(NC(=O)c3ccccc3)cc(C(*)=O)c2)cc1` (repeat unit) is higher in glass transition temperature: 267.00 °C for the first, 321.00 °C for the second.

Going from `*CCN(*)C(=O)c1c(F)cccc1F` (repeat unit) to `*CCN(*)C(=O)c1cccc(F)c1` (repeat unit), the glass transition temperature falls from 121.50 °C to 97.00 °C.

First: *Oc1ccc(CC(NC(=O)CCc2ccc(OC(=O)CCCC(*)=O)cc2)C(=O)OCC)cc1 (repeat unit)
Second: *Oc1ccc(CC(NC(=O)CCc2ccc(OC(=O)CCCCCCC(*)=O)cc2)C(=O)OCC(C)C)cc1 (repeat unit)
The glass transition temperature of the first is higher: 70.00 °C for the first, 42.00 °C for the second.

Compared with `*Oc1ccc(C2(c3ccc(OC(=O)OC4C(C)(C)C(OC(*)=O)C4(C)C)cc3)CCC(C(C)(C)C)CC2)cc1` (repeat unit), `*CC(*)(CC(=O)Oc1ccc(OCCC)cc1)C(=O)Oc1ccc(OCCC)cc1` (repeat unit) is lower in glass transition temperature: 172.00 °C for the first, 94.50 °C for the second.

Compared with `*c1ccc(-c2cnc3ccc(-c4ccc5nc(*)cnc5c4)cc3n2)cc1` (repeat unit), `*c1ccc(-c2ccc(-c3cnc4cc(Oc5ccc6nc(*)cnc6c5)ccc4n3)cc2)cc1` (repeat unit) is higher in glass transition temperature: 376.00 °C for the first, 390.00 °C for the second.

Going from `*c1cccc(Oc2ccc(Oc3cccc(N4C(=O)c5ccc(Oc6ccc7c(c6)C(=O)N(*)C7=O)cc5C4=O)c3)cc2)c1` (repeat unit) to `*c1cccc(N2C(=O)c3ccc(Oc4ccc(-c5ccc(Oc6ccc7c(c6)C(=O)N(*)C7=O)cc5)cc4)cc3C2=O)c1` (repeat unit), the glass transition temperature rises from 204.00 °C to 247.00 °C.

Going from `*O[Si](Oc1ccc(C2(c3ccc(*)c(C)c3)c3ccccc3-c3ccccc32)cc1C)(c1ccccc1)c1ccccc1` (repeat unit) to `*c1ccc(Oc2ccc(-c3cc(-c4ccccc4)c4cc(-c5ccc6nc(*)cc(-c7ccccc7)c6c5)ccc4n3)cc2)cc1` (repeat unit), the glass transition temperature rises from 171.00 °C to 305.00 °C.

Going from `*Oc1cccc(NC(=O)c2cc(NC(=O)c3ccc(OC(C)=O)cc3)cc(C(=O)Nc3ccc(*)cc3)c2)c1` (repeat unit) to `*Nc1ccc(Cc2ccc(NC(=O)c3cc(C(*)=O)cc(N4C(=O)C=CC4=O)c3)cc2)cc1` (repeat unit), the glass transition temperature rises from 251.00 °C to 287.00 °C.

Compared with `*C(=O)c1ccc2c(c1)C(=O)N(c1cccc(C(=O)c3c(C)cc(C)c(N4C(=O)c5ccc(*)cc5C4=O)c3C)c1)C2=O` (repeat unit), `*C(=O)c1ccc2c(c1)C(=O)N(c1cccc(P(=O)(c3cccc(N4C(=O)c5ccc(*)cc5C4=O)c3)c3cc(C(F)(F)F)cc(C(F)(F)F)c3)c1)C2=O` (repeat unit) is lower in glass transition temperature: 300.00 °C for the first, 243.00 °C for the second.

Going from `*CC(*)c1c(F)c(F)c(OCC(F)(F)C(F)(F)C(F)(F)C(F)(F)C(F)(F)C(F)(F)C(F)(F)F)c(F)c1F` (repeat unit) to `*CC(*)C(=O)OCC(F)(F)C(F)(F)OC(F)(F)C(F)(F)C(F)(F)F` (repeat unit), the glass transition temperature falls from 21.00 °C to -68.00 °C.

First: *CC(*)(C)C(=O)OCC(F)(F)C(F)(F)C(F)(F)C(F)F (repeat unit)
Second: *CC(*)(C)C(=O)OCCN(CC)c1ccc(/N=N/c2ccc([N+](=O)[O-])c3ccccc23)cc1 (repeat unit)
The glass transition temperature of the first is lower: 47.00 °C for the first, 116.00 °C for the second.

Compared with `*CC(=C)COCC(=C)COC(=O)O*` (repeat unit), `*CCCCOCO*` (repeat unit) is lower in glass transition temperature: 70.50 °C for the first, -84.00 °C for the second.

First: *CNC(=O)OCCOC(=O)NCc1ccc(C(C)(C)c2ccc(*)o2)o1 (repeat unit)
Second: *CCCCCCNC(=O)c1ccc(C(=O)N*)c(Sc2ccccc2)c1 (repeat unit)
The glass transition temperature of the first is lower: 50.00 °C for the first, 121.00 °C for the second.

Going from `*c1ccc2c(c1)C(=O)N(c1ccc(N3C(=O)c4ccc(C(*)(C(F)(F)F)C(F)(F)F)cc4C3=O)cc1)C2=O` (repeat unit) to `*C(=O)Oc1ccc(C(c2ccc(OC(=O)c3ccc4c(c3)C(=O)N(c3c(C)cc(-c5cc(C)c(N6C(=O)c7ccc(*)cc7C6=O)c(C)c5)cc3C)C4=O)cc2)(C(F)(F)F)C(F)(F)F)cc1` (repeat unit), the glass transition temperature falls from 355.50 ± 19 °C to 335.00 °C.

Compared with `*CC(O)COc1ccc(C(C)(C)c2ccc(OCC(O)COc3cccc(NC(=O)CCCCCC(=O)Nc4cccc(O*)c4)c3)cc2)cc1` (repeat unit), `*CC(O)CN(Cc1ccccc1)CC(O)COc1ccc(C(C)(C)c2ccc(O*)cc2)cc1` (repeat unit) is lower in glass transition temperature: 107.00 °C for the first, 94.2 °C for the second.

First: *c1ccc2oc(-c3cccc(-c4nc5cc(C(*)(C(F)(F)F)C(F)(F)F)ccc5o4)n3)nc2c1 (repeat unit)
Second: *c1ccc(-c2ccc(-n3c(=O)c4cc5c(=O)n(*)c(=O)c5cc4c3=O)cc2OC(F)(F)F)c(OC(F)(F)F)c1 (repeat unit)
The glass transition temperature of the first is lower: 329.00 °C for the first, 373.50 ± 15 °C for the second.

First: *CCCC(C)CN1C(=O)c2ccc(C(=O)Oc3ccc(-c4ccc(OC(=O)c5ccc6c(c5)C(=O)N(*)C6=O)cc4)cc3)cc2C1=O (repeat unit)
Second: *c1ccc(Oc2ccc(Oc3ccc(N4C(=O)c5ccc(Oc6ccc(Oc7ccc(Oc8ccc9c(c8)C(=O)N(*)C9=O)cc7)cc6)cc5C4=O)cc3)cc2)cc1 (repeat unit)
The glass transition temperature of the first is lower: 155.00 °C for the first, 203.00 °C for the second.

Compared with `*c1cc(Br)c(Oc2c(Br)cc(N3C(=O)c4ccc(S(=O)(=O)c5ccc6c(c5)C(=O)N(*)C6=O)cc4C3=O)cc2Br)c(Br)c1` (repeat unit), `*CC(*)(C)C(=O)NC(=O)Oc1c(Br)cc(S(=O)(=O)c2cc(Br)c(O)c(Br)c2)cc1Br` (repeat unit) is lower in glass transition temperature: 328.00 °C for the first, 116.00 °C for the second.

Going from `*CCCCCCC(c1ccc(O)cc1)C(*)c1ccc(O)cc1C` (repeat unit) to `*Nc1ccc(Cc2ccc(NC(=O)NCCCCCCCCCCCCNC(*)=O)cc2)cc1` (repeat unit), the glass transition temperature rises from 18.00 °C to 51.00 °C.

Compared with `*C(=O)Nc1ccc(Oc2ccc(C(c3ccc(Oc4ccc(NC(=O)c5ccc6c(c5)C(=O)N(c5ccc(Oc7ccc(C8(c9ccc(Oc%10ccc(N%11C(=O)c%12ccc(*)cc%12C%11=O)cc%10)cc9)CC9CC8C8CCCC98)cc7)cc5)C6=O)cc4)cc3)(C(F)(F)F)C(F)(F)F)cc2)cc1` (repeat unit), `*Oc1ccc(S(=O)(=O)c2ccc(Oc3ccc(C(c4ccc(*)cc4)(C(F)(F)F)C(F)(F)F)cc3)cc2C(O)(C(F)(F)F)C(F)(F)F)c(C(O)(C(F)(F)F)C(F)(F)F)c1` (repeat unit) is lower in glass transition temperature: 254.00 °C for the first, 148.00 °C for the second.

Going from `*CC1(C)CC(*)(C)C(=O)OC1=O` (repeat unit) to `*CC(*)S(=O)(=O)c1ccccc1` (repeat unit), the glass transition temperature falls from 144.00 °C to 128.00 °C.

Compared with `*/C=C/c1cc(OCCCCCCCCCCCC)c(/C=C/c2ccc(*)cc2)cc1OCCCCCCCCCCCC` (repeat unit), `*CC(*)(C)C(=O)OCc1ccc(OCCOCCOCCOCC)c(OCCOCCOCCOCC)c1` (repeat unit) is lower in glass transition temperature: 38.00 °C for the first, -92.00 °C for the second.

First: *OC(C)CCC(C)OC(=O)CCCCCCCCC(*)=O (repeat unit)
Second: *Nc1cccc2c(N[Se]*)cccc12 (repeat unit)
The glass transition temperature of the first is lower: -66.00 °C for the first, 53.00 °C for the second.
